Patent publication US10160726B2, “Quinolone derivatives as antibacterials” (priority 2014, dated 2018)
In brackets after ≈: the same amount, converted by molar mass. Structures can show the parent of a compound that is named as a salt. Where two headings read alike, the source gives them in different places.

Experiments:
Assay type in all cases: cell-based
[1] = tested on: P. aeruginosa NB52019 (wild-type PAO1); test: MIC, broth microdilution (CLSI); settings: Pseudomonas aeruginosa, read-out: Antibacterial activity (MIC) NB52019
[2] = tested on: E. coli ATCC 25922 (NB27001); test: MIC, broth microdilution (CLSI); settings: Escherichia coli, ATCC25922; E. coli ATCC 25922; 35° C., 20 hours; read-out: Antibacterial activity (MIC) NB27001
[3] = tested on: P. aeruginosa NB52023 (efflux deficient K1542, ΔmexX ΔmexB); test: microbe, parasite or virus in culture; settings: Pseudomonas aeruginosa, 20 h, read-out: Antibacterial activity (MIC) NB52023
[4] = tested on: P. aeruginosa NB52023-CDK0006 (gyrA T83I, parC S87L); test: microbe, parasite or virus in culture; settings: Pseudomonas aeruginosa, 20 h, read-out: Antibacterial activity (MIC) NB52023-CDK0006
[5] = tested on: S. aureus NB01006-AVR005 (gyrA S84L, grlA S80F, grlB E471K); test: microbe, parasite or virus in culture; settings: Staphylococcus aureus, 20 h, read-out: Antibacterial activity (MIC) NB01006-AVR005
[6] = tested on: E. coli NB27177 (efflux deficient CGSC 11430, ΔtolC732::kan); test: microbe, parasite or virus in culture; settings: Escherichia coli, 20 h, read-out: Antibacterial activity (MIC) NB27177
[7] = tested on: S. aureus ATCC 29213 (NB01001); test: MIC, broth microdilution (CLSI); settings: Staphylococcus aureus, ATCC29213; S. aureus ATCC 29213; 35° C., 20 hours; read-out: Antibacterial activity (MIC) NB01001
[8] = P. aeruginosa wild-type PAO1, 35° C., 20 hours

## Cc1c(N2CC[C@@H]([C@H](C)N)C2)ccc2c(OCc3ccccc3)cc(=O)n(C3CC3)c12 [Example 71, 7-((R)-3-((S)-1-aminoethyl)pyrrolidin-1-yl)-4-(benzyloxy)-1-cyclopropyl-8-methylquinolin-2(1H)-one TFA salt]
[1]; PAO1, 20 h
  MIC: > 32 µg/mL
[2]
  MIC: 32 µg/mL
[3]
  MIC: > 32 µg/mL
[4]
  MIC: > 32 µg/mL
[5]
  MIC: 6 µg/mL
[6]
  MIC: 6 µg/mL
[7]
  MIC: 2 µg/mL

## Cc1c(N2CC[C@@H]([C@H](C)N)C2)ccc2c(O)cc(=O)n(C3CC3)c12 [Example 72, 7-((R)-3-((S)-1-aminoethyl)pyrrolidin-1-yl)-1-cyclopropyl-4-hydroxy-8-methylquinolin-2(1H)-one TFA salt]
[1]; PAO1, 20 h
  MIC: 32 µg/mL
[2]
  MIC: 32 µg/mL
[3]
  MIC: > 32 µg/mL
[4]
  MIC: > 32 µg/mL
[5]
  MIC: 8 µg/mL
[6]
  MIC: 16 µg/mL
[7]
  MIC: 16 µg/mL

## Cc1c(-c2ccc(N)nc2)ccc2ccc(=O)n(C3CC3)c12 [Example 75, 7-(6-aminopyridin-3-yl)-1-cyclopropyl-8-methylquinolin-2(1H)-one]
[1]; PAO1, 20 h
  MIC: > 32 µg/mL
[2]
  MIC: 32 µg/mL (≈ 110 µM)
[3]
  MIC: 32 µg/mL (≈ 110 µM)
[4]
  MIC: > 32 µg/mL
[5]
  MIC: 8 µg/mL (≈ 27.5 µM)
[6]
  MIC: 0.5 µg/mL (≈ 1.72 µM)
[7]
  MIC: 8 µg/mL (≈ 27.5 µM)

## Cc1c(-c2ccc(N)nc2)ccc2cc(O)c(=O)n(C3CC3)c12 [Example 77, 7-(6-Aminopyridin-3-yl)-1-cyclopropyl-3-hydroxy-8-methylquinolin-2(1H)-one TFA salt]
[1]; PAO1, 20 h
  MIC: > 32 µg/mL
[2]
  MIC: 32 µg/mL
[3]
  MIC: > 32 µg/mL
[4]
  MIC: > 32 µg/mL
[5]
  MIC: 32 µg/mL
[6]
  MIC: 0.5 µg/mL
[7]
  MIC: 4 µg/mL

## COc1cc2ccc(-c3ccc(N)nc3)c(C)c2n(C2CC2)c1=O [Example 78, 7-(6-Aminopyridin-3-yl)-1-cyclopropyl-3-methoxy-8-methylquinolin-2(1H)-one TFA salt]
[1]; PAO1, 20 h
  MIC: > 32 µg/mL
[2]
  MIC: 32 µg/mL
[3]
  MIC: > 32 µg/mL
[4]
  MIC: > 32 µg/mL
[5]
  MIC: 16 µg/mL
[6]
  MIC: 1 µg/mL
[7]
  MIC: 8 µg/mL

## COc1cc2ccc(N3CC[C@@H]([C@H](C)N)C3)c(C)c2n(C2CC2)c1=O [Example 80, 7-((R)-3-((S)-1-aminoethyl)pyrrolidin-1-yl)-1-cyclopropyl-3-methoxy-8-methylquinolin-2(1H)-one TFA salt]
[1]; PAO1, 20 h
  MIC: > 32 µg/mL
[2]
  MIC: 32 µg/mL
[3]
  MIC: > 32 µg/mL
[4]
  MIC: > 32 µg/mL
[5]
  MIC: 2 µg/mL
[6]
  MIC: 2 µg/mL
[7]
  MIC: 1 µg/mL

## Cc1c(N2CCNCC2)c(F)cc2c(CN)cc(=O)n(C3CC3)c12 [Example 81.09, 4-(aminomethyl)-1-cyclopropyl-6-fluoro-8-methyl-7-(piperazin-1-yl)quinolin-2(1H)-one]
[1]; [8]
  MIC: 4 µg/mL (≈ 12.1 µM)
[2]
  MIC: 2 µg/mL (≈ 6.05 µM)
[3]
  MIC: 0.5 µg/mL (≈ 1.51 µM)
[4]
  MIC: 2 µg/mL (≈ 6.05 µM)
[5]
  MIC: 16 µg/mL (≈ 48.4 µM)
[6]
  MIC: 0.5 µg/mL (≈ 1.51 µM)
[7]
  MIC: 16 µg/mL (≈ 48.4 µM)

## Cc1c(N2CC3CC3(N)C2)c(F)cc2c(CN)cc(=O)n(C3CC3)c12 (centres unmarked) [Example 81.23, 7-(1-amino-3-azabicyclo[3.1.0]hexan-3-yl)-4-(aminomethyl)-1-cyclopropyl-6-fluoro-8-methylquinolin-2(1H)-one]
[1]; PAO1, 20 h
  MIC: 4 µg/mL (≈ 11.7 µM)
[2]
  MIC: 0.25 µg/mL (≈ 0.73 µM)
[3]
  MIC: 0.5 µg/mL (≈ 1.46 µM)
[4]
  MIC: 1 µg/mL (≈ 2.92 µM)
[5]
  MIC: 0.5 µg/mL (≈ 1.46 µM)
[6]
  MIC: 0.06 µg/mL (≈ 0.175 µM)
[7]
  MIC: 0.5 µg/mL (≈ 1.46 µM)

## Cc1c(N2CC[C@H](O)C2)c(F)cc2c(CN)cc(=O)n(C3CC3)c12 [Example 81.32, (S)-4-(aminomethyl)-1-cyclopropyl-6-fluoro-7-(3-hydroxypyrrolidin-1-yl)-8-methylquinolin-2(1H)-one]
[1]; PAO1, 20 h
  MIC: 4 µg/mL (≈ 12.1 µM)
[2]
  MIC: 0.5 µg/mL (≈ 1.51 µM)
[3]
  MIC: 0.25 µg/mL (≈ 0.754 µM)
[4]
  MIC: 1 µg/mL (≈ 3.02 µM)
[5]
  MIC: 1 µg/mL (≈ 3.02 µM)
[6]
  MIC: < 0.03 µg/mL
[7]
  MIC: 0.5 µg/mL (≈ 1.51 µM)

## Cc1c(N2CCC(F)(CN)C2)c(F)cc2c(CN)cc(=O)n(C3CC3)c12 (centres unmarked) [Example 81.33, 4-(aminomethyl)-7-(3-(aminomethyl)-3-fluoropyrrolidin-1-yl)-1-cyclopropyl-6-fluoro-8-methylquinolin-2(1H)-one]
[1]; PAO1, 20 h
  MIC: 2 µg/mL (≈ 5.52 µM)
[2]
  MIC: 0.5 µg/mL (≈ 1.38 µM)
[3]
  MIC: 0.5 µg/mL (≈ 1.38 µM)
[4]
  MIC: 1 µg/mL (≈ 2.76 µM)
[5]
  MIC: 1 µg/mL (≈ 2.76 µM)
[6]
  MIC: 0.06 µg/mL (≈ 0.166 µM)
[7]
  MIC: 0.5 µg/mL (≈ 1.38 µM)

## Cc1c(N2CCC(F)(CN)C2)c(F)c(F)c2c(CN)cc(=O)n(C3CC3)c12 (centres unmarked) [Example 83, 4-(aminomethyl)-7-(3-(aminomethyl)-3-fluoropyrrolidin-1-yl)-1-cyclopropyl-5,6-difluoro-8-methylquinolin-2(1H)-one TFA salt]
[1]; PAO1, 20 h
  MIC: 2 µg/mL
[2]
  MIC: 0.125 µg/mL
[3]
  MIC: 0.25 µg/mL
[4]
  MIC: 0.5 µg/mL
[5]
  MIC: 0.125 µg/mL
[6]
  MIC: < 0.03 µg/mL
[7]
  MIC: 0.125 µg/mL

## Cc1c(N2CC[C@H](N)C2)c(F)c(F)c2c(CN)cc(=O)n(C3CC3)c12 [Example 83.6, (S)-4-(aminomethyl)-7-(3-aminopyrrolidin-1-yl)-1-cyclopropyl-5,6-difluoro-8-methylquinolin-2(1H)-one]
[1]; PAO1, 20 h
  MIC: 4 µg/mL (≈ 11.5 µM)
[2]
  MIC: 0.5 µg/mL (≈ 1.44 µM)
[3]
  MIC: 0.25 µg/mL (≈ 0.718 µM)
[4]
  MIC: 0.5 µg/mL (≈ 1.44 µM)
[5]
  MIC: 2 µg/mL (≈ 5.74 µM)
[6]
  MIC: 0.06 µg/mL (≈ 0.172 µM)
[7]
  MIC: 1 µg/mL (≈ 2.87 µM)

## Cc1c(N2CCC(CN)C2)c(F)cc2c(CNCCN)cc(=O)n(C3CC3)c12.O=C(O)C(F)(F)F (centres unmarked) [Example 87, 4-(((2-aminoethyl)amino)methyl)-7-(3-(aminomethyl)pyrrolidin-1-yl)-1-cyclopropyl-6-fluoro-8-methylquinolin-2(1H)-one TFA salt]
[1]; [8]
  MIC: 16 µg/mL
[2]
  MIC: 8 µg/mL
[3]
  MIC: 4 µg/mL
[4]
  MIC: 8 µg/mL
[5]
  MIC: 0.25 µg/mL
[6]
  MIC: 0.5 µg/mL
[7]
  MIC: 0.5 µg/mL

## CNCc1cc(=O)n(C2CC2)c2c(C)c(N3CCC(CN)C3)c(F)cc12.O=C(O)C(F)(F)F (centres unmarked) [Example 88, 7-(3-(aminomethyl)pyrrolidin-1-yl)-1-cyclopropyl-6-fluoro-8-methyl-4-((methylamino)methyl)quinolin-2(1H)-one TFA salt]
[1]; [8]
  MIC: 16 µg/mL
[2]
  MIC: 4 µg/mL
[3]
  MIC: 2 µg/mL
[4]
  MIC: 4 µg/mL
[5]
  MIC: 2 µg/mL
[6]
  MIC: 0.25 µg/mL
[7]
  MIC: 1 µg/mL

## Cc1c(N2CCC(CN)C2)c(F)cc2c(CN(C)C)cc(=O)n(C3CC3)c12.O=C(O)C(F)(F)F (centres unmarked) [Example 89, 7-(3-(aminomethyl)pyrrolidin-1-yl)-1-cyclopropyl-4-((dimethylamino)methyl)-6-fluoro-8-methylquinolin-2(1H)-one TFA salt]
[1]; [8]
  MIC: > 32 µg/mL
[2]
  MIC: 4 µg/mL
[3]
  MIC: 16 µg/mL
[4]
  MIC: 32 µg/mL
[5]
  MIC: 4 µg/mL
[6]
  MIC: 0.5 µg/mL
[7]
  MIC: 1 µg/mL

## Cc1c(N2CCC(CN)C2)c(F)cc2c(CCN)cc(=O)n(C3CC3)c12.O=C(O)C(F)(F)F (centres unmarked) [Example 91, 4-(2-aminoethyl)-7-(3-(aminomethyl)pyrrolidin-1-yl)-1-cyclopropyl-6-fluoro-8-methylquinolin-2(1H)-one TFA salt]
[1]; [8]
  MIC: 16 µg/mL
[2]
  MIC: 8 µg/mL
[3]
  MIC: 8 µg/mL
[4]
  MIC: 16 µg/mL
[5]
  MIC: 1 µg/mL
[6]
  MIC: 1 µg/mL
[7]
  MIC: 1 µg/mL

## Cc1c(N2CCC(F)(CN)C2)c(F)cc2cc(CN)c(=O)n(C3CC3)c12 (centres unmarked) [Example 93, 3-(aminomethyl)-7-(3-(aminomethyl)-3-fluoropyrrolidin-1-yl)-1-cyclopropyl-6-fluoro-8-methylquinolin-2(1H)-one formic acid salt]
[1]; PAO1, 20 h
  MIC: 8 µg/mL
[2]
  MIC: 8 µg/mL
[3]
  MIC: 4 µg/mL
[4]
  MIC: 8 µg/mL
[5]
  MIC: 16 µg/mL
[6]
  MIC: 1 µg/mL
[7]
  MIC: 2 µg/mL

## Cc1c(N2CCC(CN)C2)c(F)c(C#N)c2ccc(=O)n(C3CC3)c12.O=C(O)C(F)(F)F (centres unmarked) [Example 99, 7-(3-(aminomethyl)pyrrolidin-1-yl)-1-cyclopropyl-6-fluoro-8-methyl-2-oxo-1,2-dihydroquinoline-5-carbonitrile TFA salt]
[1]; [8]
  MIC: > 32 µg/mL
[2]
  MIC: 4 µg/mL
[3]
  MIC: 2 µg/mL
[4]
  MIC: 4 µg/mL
[5]
  MIC: 0.06 µg/mL
[6]
  MIC: 0.125 µg/mL
[7]
  MIC: 0.125 µg/mL

## Cc1c(N2CCC(CN)C2)c(F)c(CN)c2ccc(=O)n(C3CC3)c12.O=C(O)C(F)(F)F (centres unmarked) [Example 100, 5-(aminomethyl)-7-(3-(aminomethyl)pyrrolidin-1-yl)-1-cyclopropyl-6-fluoro-8-methylquinolin-2(1H)-one TFA salt]
[1]; [8]
  MIC: > 32 µg/mL
[2]
  MIC: 32 µg/mL
[3]
  MIC: 8 µg/mL
[4]
  MIC: 16 µg/mL
[5]
  MIC: 4 µg/mL
[6]
  MIC: 2 µg/mL
[7]
  MIC: 8 µg/mL

## Cc1c(F)c(N2CCC(CN)C2)c(C)c2c1ccc(=O)n2C1CC1.O=C(O)C(F)(F)F (centres unmarked) [Example 101, 7-(3-(aminomethyl)pyrrolidin-1-yl)-1-cyclopropyl-6-fluoro-5,8-dimethylquinolin-2(1H)-one TFA salt]
[1]; [8]
  MIC: > 32 µg/mL
[2]
  MIC: 8 µg/mL
[3]
  MIC: 8 µg/mL
[4]
  MIC: 16 µg/mL
[5]
  MIC: 0.125 µg/mL
[6]
  MIC: 0.125 µg/mL
[7]
  MIC: 0.5 µg/mL
